PubChem BioAssay (NCI)
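Where inhibition never reached the appropriate level, the endpoint shown equals the highest concentration tested. Otherwise, values were interpolated linearly from a five-concentration, 48-hour dose response in 96-well plates. At the TGI there is no net growth.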

Key:
Test in all cases: NCI-60 cell line screen, 48 h
MALME-3M melanoma = system: MALME-3M melanoma
HCT-15 colon = system: HCT-15 colon
HCC-2998 colon = system: HCC-2998 colon
K-562 leukemia = system: K-562 leukemia
MDA-MB-435 = system: MDA-MB-435
786-0 renal = system: 786-0 renal
OVCAR-8 ovarian = system: OVCAR-8 ovarian
CCRF-CEM leukemia = system: CCRF-CEM leukemia
SK-MEL-5 melanoma = system: SK-MEL-5 melanoma
MCF7 breast = system: MCF7 breast
SNB-75 CNS = system: SNB-75 CNS
SN12C renal = system: SN12C renal
SNB-19 CNS = system: SNB-19 CNS
A549 NSCLC = system: A549 NSCLC
U251 CNS = system: U251 CNS
TK-10 renal = system: TK-10 renal
NCI-H23 lung = system: NCI-H23 lung
NCI-H522 lung = system: NCI-H522 lung
OVCAR-5 ovarian = system: OVCAR-5 ovarian
KM12 colon = system: KM12 colon
UO-31 renal = system: UO-31 renal
SK-OV-3 ovarian = system: SK-OV-3 ovarian
SF-268 CNS = system: SF-268 CNS
MDA-MB-231 breast = system: MDA-MB-231 breast
NCI/ADR-RES ovarian = system: NCI/ADR-RES ovarian
HOP-62 NSCLC = system: HOP-62 NSCLC
IGROV1 ovarian = system: IGROV1 ovarian
MOLT-4 leukemia = system: MOLT-4 leukemia
HCT-116 colon = system: HCT-116 colon
SR leukemia = system: SR leukemia
MDA-N = system: MDA-N
A498 renal = system: A498 renal
HS 578T breast = system: HS 578T breast
SF-295 CNS = system: SF-295 CNS
SK-MEL-2 melanoma = system: SK-MEL-2 melanoma
M14 melanoma = system: M14 melanoma
NCI-H226 lung = system: NCI-H226 lung
RXF 393 renal = system: RXF 393 renal
UACC-257 melanoma = system: UACC-257 melanoma
COLO 205 colon = system: COLO 205 colon
PC-3 prostate = system: PC-3 prostate
SK-MEL-28 melanoma = system: SK-MEL-28 melanoma
EKVX NSCLC = system: EKVX NSCLC
HL-60(TB) leukemia = system: HL-60(TB) leukemia
T-47D breast = system: T-47D breast
RPMI-8226 leukemia = system: RPMI-8226 leukemia
UACC-62 melanoma = system: UACC-62 melanoma
OVCAR-4 ovarian = system: OVCAR-4 ovarian
LOX IMVI melanoma = system: LOX IMVI melanoma
HT29 colon = system: HT29 colon
OVCAR-3 ovarian = system: OVCAR-3 ovarian
SF-539 CNS = system: SF-539 CNS
HOP-92 NSCLC = system: HOP-92 NSCLC
ACHN renal = system: ACHN renal
CAKI-1 renal = system: CAKI-1 renal
DU-145 prostate = system: DU-145 prostate
NCI-H460 lung = system: NCI-H460 lung
BT-549 breast = system: BT-549 breast
SW-620 colon = system: SW-620 colon

## CC(=O)c1ccc(Br)cc1NC1=CC(=O)c2ncccc2C1=O
MALME-3M melanoma
  TGI: 5.69 µM
HCT-15 colon
  TGI: 10.3 µM
HCC-2998 colon
  TGI: 8.54 µM
K-562 leukemia
  TGI: 10.1 µM
MDA-MB-435
  TGI: 3.06 µM
786-0 renal
  TGI: 15.3 µM
OVCAR-8 ovarian
  TGI: 18.2 µM
CCRF-CEM leukemia
  TGI: 32.2 µM
SK-MEL-5 melanoma
  TGI: 1.3 µM
MCF7 breast
  TGI: 11.6 µM
SNB-75 CNS
  TGI: 5.58 µM
SN12C renal
  TGI: 19.1 µM
SNB-19 CNS
  TGI: 11.3 µM
A549 NSCLC
  TGI: 10.6 µM
U251 CNS
  TGI: 19.7 µM
TK-10 renal
  TGI: 31.4 µM
NCI-H23 lung
  TGI: 13 µM
NCI-H522 lung
  TGI: 10.4 µM
OVCAR-5 ovarian
  TGI: 33.8 µM
KM12 colon
  TGI: 11.7 µM
UO-31 renal
  TGI: 15.8 µM
SK-OV-3 ovarian
  TGI: 29.1 µM
SF-268 CNS
  TGI: 21.7 µM
MDA-MB-231 breast
  TGI: 10.8 µM
NCI/ADR-RES ovarian
  TGI: 14.9 µM
HOP-62 NSCLC
  TGI: 13.1 µM
IGROV1 ovarian
  TGI: 12.4 µM
MOLT-4 leukemia
  TGI: 9.6 µM
HCT-116 colon
  TGI: 4.5 µM
SR leukemia
  TGI: 5.97 µM
MDA-N
  TGI: 3.62 µM
A498 renal
  TGI: 5.85 µM
HS 578T breast
  TGI: 35.6 µM
SF-295 CNS
  TGI: 14.3 µM
SK-MEL-2 melanoma
  TGI: 16.9 µM
M14 melanoma
  TGI: 10.6 µM
NCI-H226 lung
  TGI: 15.5 µM
RXF 393 renal
  TGI: 18.7 µM
UACC-257 melanoma
  TGI: 4.94 µM
COLO 205 colon
  TGI: 11.4 µM
PC-3 prostate
  TGI: 13.5 µM
SK-MEL-28 melanoma
  TGI: 20.7 µM
EKVX NSCLC
  TGI: 19.4 µM
HL-60(TB) leukemia
  TGI: 3.61 µM
T-47D breast
  TGI: 9.37 µM
RPMI-8226 leukemia
  TGI: 8.95 µM
UACC-62 melanoma
  TGI: 6.13 µM
OVCAR-4 ovarian
  TGI: 11.2 µM
LOX IMVI melanoma
  TGI: 18.9 µM
HT29 colon
  TGI: 12.3 µM
OVCAR-3 ovarian
  TGI: 4.09 µM
SF-539 CNS
  TGI: 6.96 µM
HOP-92 NSCLC
  TGI: 26 µM
ACHN renal
  TGI: 12.5 µM
CAKI-1 renal
  TGI: 22.3 µM
DU-145 prostate
  TGI: 16.4 µM

## COc1ccc2c(O)c(Oc3ccc(Cl)cc3)c(=O)oc2c1
MALME-3M melanoma
  TGI: > 100 µM
HCT-15 colon
  TGI: > 100 µM
HCC-2998 colon
  TGI: > 100 µM
K-562 leukemia
  TGI: > 100 µM
786-0 renal
  TGI: > 100 µM
OVCAR-8 ovarian
  TGI: > 100 µM
CCRF-CEM leukemia
  TGI: > 100 µM
SK-MEL-5 melanoma
  TGI: > 100 µM
MCF7 breast
  TGI: > 100 µM
SNB-75 CNS
  TGI: > 100 µM
SN12C renal
  TGI: > 100 µM
SNB-19 CNS
  TGI: > 100 µM
A549 NSCLC
  TGI: > 100 µM
NCI-H460 lung
  TGI: > 100 µM
U251 CNS
  TGI: > 100 µM
TK-10 renal
  TGI: > 100 µM
NCI-H23 lung
  TGI: > 100 µM
NCI-H522 lung
  TGI: > 100 µM
OVCAR-5 ovarian
  TGI: > 100 µM
BT-549 breast
  TGI: > 100 µM
KM12 colon
  TGI: > 100 µM
UO-31 renal
  TGI: > 100 µM
SF-268 CNS
  TGI: > 100 µM
MDA-MB-231 breast
  TGI: > 100 µM
SW-620 colon
  TGI: > 100 µM
HOP-62 NSCLC
  TGI: > 100 µM
IGROV1 ovarian
  TGI: > 100 µM
MOLT-4 leukemia
  TGI: > 100 µM
HCT-116 colon
  TGI: > 100 µM
SR leukemia
  TGI: > 100 µM
MDA-N
  TGI: > 100 µM
A498 renal
  TGI: > 100 µM
HS 578T breast
  TGI: > 100 µM
SF-295 CNS
  TGI: > 100 µM
M14 melanoma
  TGI: > 100 µM
NCI-H226 lung
  TGI: > 100 µM
RXF 393 renal
  TGI: > 100 µM
UACC-257 melanoma
  TGI: > 100 µM
PC-3 prostate
  TGI: > 100 µM
SK-MEL-28 melanoma
  TGI: > 100 µM
EKVX NSCLC
  TGI: > 100 µM
HL-60(TB) leukemia
  TGI: > 100 µM
T-47D breast
  TGI: > 100 µM
RPMI-8226 leukemia
  TGI: > 100 µM
OVCAR-4 ovarian
  TGI: > 100 µM
LOX IMVI melanoma
  TGI: > 100 µM
HT29 colon
  TGI: > 100 µM
OVCAR-3 ovarian
  TGI: > 100 µM
SF-539 CNS
  TGI: > 100 µM
HOP-92 NSCLC
  TGI: > 100 µM
ACHN renal
  TGI: > 100 µM
CAKI-1 renal
  TGI: > 100 µM
DU-145 prostate
  TGI: > 100 µM
